Measured values published in paper PMC3640759 (Molecular and biochemical parasitology, 2013).
Where two headings read alike, the source gives them in different places. One block for each compound: values may come before it.

What was measured:
in vitro = settings: human
[1] = tested on: P. falciparum 3D7 strain stage III–V gametocytes; assay: alamarBlue gametocyte viability assay, 1,536-well plate format; assay type: cell-based, Plasmodium falciparum
[2] = cytotoxicity assay against SH-SY5Y neuroblastoma cells; settings: human
[3] = tested on: SH-SY5Y neuroblastoma cell line; assay: as above; settings: SH-SY5Y cells; lowest compound concentration 0.37 μM
[4] = tested on: P. falciparum gametocytes; settings: read-out: IC50 reported in 96-well plate format; cited from earlier work
[5] = Plasmodium falciparum, 3D7, 72 h, read-out: IC50 (gametocyte assay)

IC50 (in vitro): 13400 nM
IC50 [1, 5]: 250 nM
Structure (SMILES): CCN(CC)C(=S)SSC(=S)N(CC)CC [Antabuse]

Structure (SMILES): CNc1ccc2oc(C[C@H]3O[C@@]4(CC[C@H]3C)O[C@H]([C@H](C)C(=O)c3ccc[nH]3)[C@H](C)C[C@H]4C)nc2c1C(=O)O [Calcimycin]
IC50 [2]: 1370 nM
IC50 [1, 5]: 1960 nM

IC50 (in vitro): 9480 nM
Structure (SMILES): Clc1ccccc1C(c1ccccc1)(c1ccccc1)n1ccnc1 [Clotrimazole]

IC50 [1, 5]: 1170 nM
Structure (SMILES): Cc1cc(NC2CCCCC2)nc(-n2nc(C)cc2C)n1 [CyPPA, Cyclohexyl-[2-(3,5-dimethyl-pyrazol-1-yl)-6-methyl-pyrimidin-4-yl]-amine]
IC50 ([2]; SH-SY5Y neuroblastoma cells): 9160 nM

Structure (SMILES): c1ccc2c(c1)[I+]c1ccccc1-2 [Dibenziodolium]
cytotoxicity at lowest compound concentration tested [3]: completely cytotoxic

IC50 [1, 5]: 2190 nM
Structure (SMILES): c1cnc2c(c1)ccc1cccnc12 [Phenanthroline, 1,10-phenanthroline]
IC50 ([2]; SH-SY5Y neuroblastoma cells): 5450 nM

Structure (SMILES): CC[C@H](C)[C@H](NC(=O)[C@H]([C@@H](C)CC)N(C)C(C)=O)C(=O)N[C@H](C(=O)N[C@@H](CC(C)C)C(=O)[C@@]1(C)CO1)[C@@H](C)O [epoxomicin]
IC50 ([1]; seeding density 10 k gametocytes/well, 1,536-well plate): 1.3 nM
IC50 ([1]; seeding density 20 k gametocytes/well, 1,536-well plate): 1.8 nM
IC50 ([1]; seeding density 27.5 k gametocytes/well, 1,536-well plate): 2.1 nM
IC50 [4]: 2.16 nM
